The term thermodynamic solubility denotes the concentration in solution at equilibrium with solid. The Solubility is the dissolved amount per volume that the medium holds.

The structures appear in SMILES notation. ≈ marks a conversion by molar mass, not a printed value.

Consider four compounds from paper PMC7893776, “Selecting an anti-malarial clinical candidate from two potent dihydroisoquinolones” (Malaria Journal, 2021).

Series [1] can be described thus: LogP, Gemini Profiler titration. Type of series: physicochemical. As to the method: LogP was measured using a Gemini Profiler instrument (pION Inc., Billerica, MA). 1–2 mg of compound was dissolved in octanol (0.5 mL) in a test tube. The test tube was purged with argon and a magnetic stir bar was added. The solution was treated with aqueous KCl (2.5 mL, 0.15 M) and stirred for 10 min. The pH was adjusted to 2 by addition of aqueous HCl (0.5 M). The resulting solution was titrated by adding aqueous KOH (0.5 M) in small aliquots (controlled by the Gemini Profiler software), until the pH reached 12. The volume of each addition and the corresponding pH of the test solution were recorded. Data were processed using pS software. The data points were fitted to a Bjerrum plot to achieve the best GOF (goodness of fitness) and a logP value was obtained. All measurements were conducted in triplicate.

A short description of series [2]: Parallel artificial membrane permeability assay (PAMPA). Type of series: in vitro ADME. As to the method: The assay was conducted using a Biomek FX lab automation workstation (Beckman Coulter, Inc., Fullerton, CA) with PAMPA evolution 96 command software (pION Inc., Woburn, MA). Test compound stock (10 mM in DMSO, 3 µL) was mixed with citrate phosphate buffered saline (597 µL) to make diluted test compound. Diluted test compound (150 µL) was transferred to a UV plate (pION Inc., Woburn, MA) and the UV spectrum (250–500 nm) was read as the reference plate. Each well of the donor plate in a PAMPA sandwich plate (pION Inc., Woburn, MA) contained a filter that was painted on one side with 4 µL GIT lipid (pION Inc., Woburn, MA) to form a membrane. Each well in the acceptor plate in a PAMPA sandwich, preloaded with magnetic stir bars, was filled with acceptor solution buffer (200 µL, pION Inc., Woburn, MA). The donor plate was filled with diluted test compound (180 µL). The combined PAMPA plate was placed on a pIon Gut-box™ and stirred for 30 min. The UV spectrum (250–500 nm) of the donor and the acceptor were read. The permeability coefficient and recovery were calculated using PAMPA evolution 96 command software (pION Inc., Woburn, MA) based on the whole spectrum measured from the reference plate, the donor plate, and the acceptor plate. All compounds were tested in triplicate.
A general note: The PAMPA barrier holds no transporters, so it reflects passive diffusion.

In another series the test system is mouse plasma proteins. The experiment in a line: Plasma protein binding (RED), mouse. The series is classed as in vitro ADME. The note with it: average of 20, 4, 0.8 µM. As to the method: A Rapid Equilibrium Dialysis (RED) Plate (Thermo Scientific, catalog #, PI-90007) was used to determine the percentage of compound binding to plasma proteins. The positive control for this experiment was propranolol-HCl (10 mM in DMSO) and the internal standard was warfarin (2 µM in methanol). 10 mM stocks of compound in DMSO were diluted with DMSO acetonitrile (1:4, v:v) to three different intermediate concentrations: high (2 mM), medium (0.4 mM) and low (0.08 mM). A 10 mM stock of propranolol in DMSO was diluted to 0.4 mM concentration in DMSO:acetonitrile (1:4 v:v). In 16 Eppendorf tubes, the control (10 µL) or each of three compound dilutions (10 µL) were each added to separate aliquots of mouse, rat, dog, and human plasma (990 µL). In the RED plate, potassium phosphate buffer (500 µL, 0.1 M, pH 7.4, 37 °C) was placed in every white well and each plasma/compound mixture was added to each of 3 red wells. […] The compounds and internal standard were detected by selected ion recording (SIR). Using the peak area ratio of compound to warfarin from the SIR spectra, the percentage of free compound [1] and bound compound [2] were calculated using the following equations: (1) % free = (concentration buffer chamber/concentration plasma chamber)*100, and (2) % bound = 100 − % free.

A further series is described as follows: Thermodynamic solubility. The series is classed as physicochemical. The following applies: for solubility thermodynamic: 37 °C, thermodynamic from solid. As to the method:
Solubility was also evaluated in fasted (FaSSIF-V2) or fed (FeSSIF-V2) state simulated intestinal fluids. These media contain lipolysis breakdown products (glycerol monooleate and oleic acid) in addition to bile salt (sodium taurocholate) and phospholipid (lecithin) and were buffered to simulate approximate pH conditions found in the fasted (pH 6.5) or fed (pH 5.8) state small intestine. Control media (blank FaSSIF-V2 and FeSSIF-V2 buffers) lacking bile salt, phospholipid and lipolysis products were also investigated.
Compounds were weighed into individual screw cap polypropylene tubes and aqueous buffer, 0.1 N HCl, or simulated intestinal fluid added to provide a compound concentration of between 700 and 5000 μg/mL. Samples were vortexed, placed in a 37 °C incubator, and mixed on an orbital shaker (IKA® VXR basic Vibrax® orbital shaker) set at 600 rpm. Samples were regularly examined to ensure excess solid was present. Sampling was conducted after 1, 4, 6, and 24 h by centrifuging each sample at 10,000 rpm for 3 min, transferring a 200 µL aliquot into fresh Eppendorf tubes, and centrifuging again at 10,000 rpm for 3 min. Duplicate aliquots of the final supernatant were removed and diluted to an appropriate analytical concentration in 50% aqueous methanol prior to analysis by HPLC. HPLC analysis was conducted on a Waters 2695 HPLC system coupled to a Waters 2487 dual absorbance wavelength detector, analyzing at 254 nm. A Phenomenex Luna C18(2) column (3 µm, 50 × 2.0 mm i.d.) was used for analysis, with the column temperature maintained at 40 °C. Concentrations were quantified by comparison to a calibration curve prepared over the concentration range in 50% aqueous methanol. The mobile phase consisted of water, methanol, and 1% aqueous formic acid. Separations were conducted using a flow rate of 0.4 mL/min and an injection volume of 5 µL. Processed samples were maintained in the autosampler at a temperature of 10 °C.

Consider `N#Cc1cc(NC(=O)C2c3ccccc3C(=O)N(CC(F)(F)F)C2c2cn[nH]c2)ccc1F` (racemic) [(r)-SJ311], for which the LogP in series [1] is 1.24 ± 0.28 (logP( +)). Also, the “Permeability, PAMPA” value in series [2] (pH 3) was 17 ± 2.3 10^–6 cm/s; in series [2] (pH 5), 15 ± 6.7 10^–6 cm/s; in series [2] (pH 7.4), 9.4 ± 7.0 10^–6 cm/s. The “% bound” value with mouse plasma proteins was found to be 93.7 ± 0.7%.

`N#Cc1cc(NC(=O)C2c3ccccc3C(=O)N(CC(F)(F)F)C2c2cccnc2)ccc1F` (racemic) [(r)-SJ733]: the LogP in series [1] is given as 2.95 ± 0.03 (logP( +)). The “Permeability, PAMPA” value in series [2] (pH 3) is 66 ± 3.5 10^–6 cm/s; in series [2] (pH 5), 380 ± 7.2 10^–6 cm/s; in series [2] (pH 7.4), 350 ± 130 10^–6 cm/s. Besides, in the series with mouse plasma proteins, the “% bound” value is on record as 95.7 ± 0.6%.

Take `N#Cc1cc(NC(=O)[C@H]2c3ccccc3C(=O)N(CC(F)(F)F)[C@@H]2c2cccnc2)ccc1F` (racemic) [SJ733]: the solubility (thermodynamic) is > 3000 µg/mL in “Thermodynamic solubility” (0.1 N HCl, pH 1, simulated gastric fluid, strongly acidic conditions); 81 to 237 µM in “Thermodynamic solubility” (aqueous buffer, pH 7.4, 6.5, and 5.8 aqueous buffers).

Take `N#Cc1cc(NC(=O)[C@H]2c3ccccc3C(=O)N(CC(F)(F)F)[C@@H]2c2cccnc2)ccc1F` [(+)-SJ733]: the Solubility was determined as 6817 µM (≈ 3190 µg/mL) in “Thermodynamic solubility” (0.1 N HCl pH 1, 37°C, 1 h); 7321 µM (≈ 3430 µg/mL) in “Thermodynamic solubility” (0.1 N HCl pH 1, 37°C, 4 h); 7376 µM (≈ 3450 µg/mL) in the series “Thermodynamic solubility” (0.1 N HCl pH 1, 37°C, 6 h); 7891 µM (≈ 3700 µg/mL) in the series “Thermodynamic solubility” (0.1 N HCl pH 1, 37°C, 24 h); 81 µM (≈ 37.9 µg/mL) in “Thermodynamic solubility” (FaSSIF blank pH 6.5, 37°C, 1 h); 92 µM (≈ 43.1 µg/mL) in the series “Thermodynamic solubility” (FaSSIF blank pH 6.5, 37°C, 4 h). The Solubility is recorded as 96 µM (≈ 45 µg/mL) in the series “Thermodynamic solubility” (FaSSIF blank pH 6.5, 37°C, 6 h); 100 µM (≈ 46.8 µg/mL) in the series “Thermodynamic solubility” (FaSSIF blank pH 6.5, 37°C, 24 h); 199 µM (≈ 93.2 µg/mL) in “Thermodynamic solubility” (FaSSIF-V2 pH 6.5, 37°C, 1 h); 216 µM (≈ 101 µg/mL) in the series “Thermodynamic solubility” (FaSSIF-V2 pH 6.5, 37°C, 4 h); 207 µM (≈ 97 µg/mL) in the series “Thermodynamic solubility” (FaSSIF-V2 pH 6.5, 37°C, 24 h); 83 µM (≈ 38.9 µg/mL) in the series “Thermodynamic solubility” (FeSSIF blank pH 5.8, 37°C, 1 h). Also, the Solubility in the series “Thermodynamic solubility” (FeSSIF blank pH 5.8, 37°C, 4 h) is 88 µM (≈ 41.2 µg/mL); in the series “Thermodynamic solubility” (FeSSIF blank pH 5.8, 37°C, 6 h), 100 µM (≈ 46.8 µg/mL); in the series “Thermodynamic solubility” (FeSSIF blank pH 5.8, 37°C, 24 h), 107 µM (≈ 50.1 µg/mL); in “Thermodynamic solubility” (FeSSIF-V2 pH 5.8, 37°C, 1 h), 237 µM (≈ 111 µg/mL); in the series “Thermodynamic solubility” (FeSSIF-V2 pH 5.8, 37°C, 4 h), 250 µM (≈ 117 µg/mL); in the series “Thermodynamic solubility” (FeSSIF-V2 pH 5.8, 37°C, 24 h), 248 µM (≈ 116 µg/mL). The Solubility was found to be 207 µM (≈ 97 µg/mL) in “Thermodynamic solubility” (Phosphate buffer pH 7.4, 37°C, 1 h); 250 µM (≈ 117 µg/mL) in the series “Thermodynamic solubility” (Phosphate buffer pH 7.4, 37°C, 4 h); 250 µM (≈ 117 µg/mL) in the series “Thermodynamic solubility” (Phosphate buffer pH 7.4, 37°C, 24 h).
